Results from article PMC7435646, “Design, Synthesis and Bioactive Evaluation of Oxime Derivatives of Dehydrocholic Acid as Anti-Hepatitis B Virus Agents” (Molecules, 2020).

Key:
HBeAg = experiment: Inhibition of HBeAg secretion (ELISA) in HepG2.2.15 cells; type: cell-based, hepatitis B virus (HBV); conditions: for inhibition of HBV in vitro assay: in vitro assay (Table S1); for HBeAg IC50: ELISA, nine day treatment, mean ± S.D. (n = 3), '-' = inhibition ratio less than 50% in the test concentration range; for IC50: Hepatitis B virus, HepG2.2.15, 216 h, read-out: HBeAg IC50; for HBeAg SI: SI (selectivity index) = CC50/IC50
Procedure: HepG2.2.15 cells were kindly provided by the Chinese Academy of Medical Sciences (Beijing, China), derived from human hepatoma cell line G2. […] The compounds were diluted to the desired concentrations in culture medium. […] Every three days in a nine day period, supernatant of each well was replaced with compound-containing fresh medium.
(§1) The levels of HBeAg and HBsAg in the supernatant of the cells were measured using ELISA assay following the manufacturer’s protocol (Shanghai Kehua Bio-engineering Co., Ltd., Shanghai, China).

[1] = Cytotoxicity by MTT assay in HepG2.2.15 cells; type: cell-based; conditions: human, 50% cytotoxicity concentration in HepG 2.2.15 cells, mean ± S.D. (n = 3)
Procedure: (§2) HepG2.2.15 cells were kindly provided by the Chinese Academy of Medical Sciences (Beijing, China), derived from human hepatoma cell line G2. These cells were cultured in Dulbecco’s Modified Eagle’s Medium (DMEM), supplemented with 10% fetal bovine serum (FBS), 1.5 g/L of sodium bicarbonate, 10 mL/L of penicillin, and streptomycin, respectively, and 200 mg/L of G418 at 37 °C under 5% carbon dioxide in a 95–98% humidity. The compounds were diluted to the desired concentrations in culture medium. Before treated with various concentrations of compounds, cells were seeded at a density of 1 × 10^5 cells/mL in 96-well plates and incubated for 24 h at 37 °C. Every three days in a nine day period, supernatant of each well was replaced with compound-containing fresh medium.
The cytotoxicity activity of the synthesized compounds was determined by MTT assay. After refreshing the supernatant, 20 μL MTT (5 mg/mL) was added to each well, which was further cultured for 4 h at 37 °C. Then the supernatant of each well was carefully removed, formazan crystals were dissolved in […] of DMSO and the absorbance at 450 nm was recorded. Cytotoxicity of these compounds was expressed as the concentration of compound required to kill 50% (CC50) of the HepG2.2.15 cells.

HBsAg = experiment: Inhibition of HBsAg secretion (ELISA) in HepG2.2.15 cells; type: cell-based, hepatitis B virus (HBV); conditions: for IC50: Hepatitis B virus, HepG2.2.15, 216 h, read-out: HBsAg IC50; for HBsAg SI: SI (selectivity index) = CC50/IC50
Procedure: as §2
as §1, with “China). The synthesized compounds were expressed as the concentration that achieved 50% inhibition (IC50) to the secretion of HBeAg and HBsAg.” for “China).”

[2] = HepG2.2.15 cells, result in words

SMILES | inhibition of HBV in vitro assay (HBeAg; result in words) | HBeAg IC50 (HBeAg; HepG2.2.15 cells) | CC50 at 9 days [1] [µM] | melting point [°C] | IC50 (HBeAg) [µM] | HBeAg SI (HBeAg) | IC50 (HBsAg) [µM] | HBsAg SI (HBsAg) | activity against the secretion of HBeAg (HBeAg; [2]) | activity against the secretion of HBsAg (HBsAg; [2])
C[C@H](CCC(=O)O)[C@H]1CC[C@H]2[C@@H]3[C@H](O)C[C@@H]4C[C@H](O)CC[C@]4(C)[C@H]3C[C@H](O)[C@]12C [Cholic acid] | did not exhibit inhibition | – | – | – | – | – | – | – | – | –
CC(CCC(=O)O)C1CCC2C3C(=O)CC4CC(=NO)CCC4(C)C3CC(=O)C12C (stereo not drawn) [Compound 0-1, (E)-3-(hydroxyimino)-7,12-dioxolcholanic acid] | – | - (The inhibition ratio less than 50% in the test concentration range) | > 1000 | 250.4 to 252.4 | – | – | – | – | – | –
CC(CCC(=O)O)C1CCC2C3C(=O)CC4CC(=NOCc5ccccc5)CCC4(C)C3CC(=O)C12C (stereo not drawn) [Compound 0-2, (E)-3-((benzyloxy)imino)-7,12-dioxolcholanic acid] | – | – | 470 ± 6.35 | 198.5 to 200.5 | 119 ± 1.86 | 3.95 | – | – | – | –
CON=C1CCC2(C)C(CC(=O)C3C2CC(=O)C2(C)C(C(C)CCC(=O)O)CCC32)C1 (stereo not drawn) [Compound 0-3, (E)-3-(methoxyimino)-7,12-dioxolcholanic acid] | – | - (The inhibition ratio less than 50% in the test concentration range) | > 1000 | 197.2 to 199.2 | – | – | – | – | – | –
C[C@H](CCC(=O)OCc1ccccc1)[C@H]1CC[C@H]2[C@@H]3C(=O)CC4C/C(=N/O)CC[C@]4(C)[C@H]3CC(=O)[C@]12C (stereo partly drawn) [Compound 2a-1, Benzyl (E)-3-(hydroxyimino)-7,12-dioxocholanoate] | – | – | 378 ± 25.3 | 199.2 to 201.2 | 229 ± 12.8 | 1.65 | 630 ± 35 | 0.60 | – | –
C[C@H](CCC(=O)OCc1ccccc1)[C@H]1CC[C@H]2[C@@H]3C(=O)CC4C/C(=N/OCc5ccccc5)CC[C@]4(C)[C@H]3CC(=O)[C@]12C (stereo partly drawn) [Compound 2a-2, Benzyl (E)-3-((benzyloxy)imino)-7,12-dioxocholanoate] | – | – | 211 ± 17.1 | 135.3 to 137.3 | 249 ± 47.6 | 0.85 | – | – | – | –
CO/N=C1\CC[C@@]2(C)[C@H](CC(=O)[C@@H]3[C@@H]2CC(=O)[C@]2(C)[C@@H]([C@H](C)CCC(=O)OCc4ccccc4)CC[C@@H]32)C1 [Compound 2a-3, Benzyl (E)-3-(methoxyimino)-7,12-dioxolcholanoate] | – | – | 169 ± 5.75 | 132.6 to 134.6 | 188 ± 9.51 | 0.90 | – | – | – | –
C[C@H](CCC(=O)OCc1ccc2c(c1)OCO2)[C@H]1CC[C@H]2[C@@H]3C(=O)CC4C/C(=N/O)CC[C@]4(C)[C@H]3CC(=O)[C@]12C (stereo partly drawn) [Compound 2b-1, 3,4-Methylenedioxybenzyl (E)-3-(hydroxyimino)-7,12-dioxocholanoate] | – | – | > 1000 | 182.5 to 184.5 | 96.6 ± 29 | 10.35 | – | – | – | –
C[C@H](CCC(=O)OCc1ccc2c(c1)OCO2)[C@H]1CC[C@H]2[C@@H]3C(=O)CC4C/C(=N/OCc5ccccc5)CC[C@]4(C)[C@H]3CC(=O)[C@]12C (stereo partly drawn) [Compound 2b-2, 3,4-Methylenedioxybenzyl (E)-3-((benzyloxy)imino)-7,12-dioxocholanoate] | – | - (The inhibition ratio less than 50% in the test concentration range) | 728 ± 45.2 | 124.3 to 126.3 | – | – | – | – | – | –
CO/N=C1\CC[C@@]2(C)C(CC(=O)[C@H]3[C@@H]4CC[C@H]([C@H](C)CCC(=O)OCc5ccc6c(c5)OCO6)[C@@]4(C)C(=O)C[C@@H]32)C1 (stereo partly drawn) [Compound 2b-3, 3,4-Methylenedioxybenzyl (E)-3-(methoxyimino)-7,12-dioxocholanoate] | – | – | 545 ± 28.9 | 118.7 to 120.7 | 49.4 ± 12.8 | 11.03 | – | – | – | –
C[C@H](CCC(=O)OCc1ccco1)[C@H]1CC[C@H]2[C@@H]3C(=O)CC4C/C(=N/O)CC[C@]4(C)[C@H]3CC(=O)[C@]12C (stereo partly drawn) [Compound 2c-1, Furan-2-ylmethyl (E)-3-(hydroxyimino)-7,12-dioxocholanoate] | – | – | 155 ± 30.8 | 193.2 to 195.2 | 111 ± 28.3 | 1.40 | 300 ± 15.3 | 0.52 | – | –
C[C@H](CCC(=O)OCc1ccco1)[C@H]1CC[C@H]2[C@@H]3C(=O)CC4C/C(=N/OCc5ccccc5)CC[C@]4(C)[C@H]3CC(=O)[C@]12C (stereo partly drawn) [Compound 2c-2, Furan-2-ylmethyl (E)-3-((benzyloxy)imino)-7,12-dioxocholanoate] | – | – | 101 ± 10.7 | 131.5 to 133.5 | 151 ± 32.1 | 0.67 | 464 ± 20.1 | 0.22 | – | –
CO/N=C1\CC[C@@]2(C)C(CC(=O)[C@H]3[C@@H]4CC[C@H]([C@H](C)CCC(=O)OCc5ccco5)[C@@]4(C)C(=O)C[C@@H]32)C1 (stereo partly drawn) [Compound 2c-3, Furan-2-ylmethyl (E)-3-(methoxyimino)-7,12-dioxocholanoate] | – | – | 90.9 ± 15.6 | 122.3 to 124.3 | 105 ± 22.2 | 0.86 | 181 ± 52.8 | 0.50 | – | –
C[C@H](CCC(=O)O)[C@H]1CC[C@H]2[C@@H]3C(=O)C[C@@H]4CC(=O)CC[C@]4(C)[C@H]3CC(=O)[C@]12C [DHCA, Dehydrocholic acid] | did not exhibit inhibition | - (The inhibition ratio less than 50% in the test concentration range) | > 1000 | – | – | – | – | – | no activity | no activity
C=C1[C@H](CO)[C@@H](O)C[C@@H]1n1cnc2c(=O)[nH]c(N)nc21 [ETV, Entecavir, reference compound] | – | – | 600 ± 23.4 | – | 247 ± 50 | – | 161 ± 35.9 | 3.72 | – | –
